Assay results taken from paper PMC6044830 (ACS Omega, 2017).

Target: PDE4D2 (Homo sapiens, UniProt Q08499)
Assay: PDE4D2 assay
Assay type: biochemical
Settings: read-out: PDE4D2 (IC50); human recombinant PDE4D2, catalytic domain

PDE4D2, sequence (Q08499 381-740): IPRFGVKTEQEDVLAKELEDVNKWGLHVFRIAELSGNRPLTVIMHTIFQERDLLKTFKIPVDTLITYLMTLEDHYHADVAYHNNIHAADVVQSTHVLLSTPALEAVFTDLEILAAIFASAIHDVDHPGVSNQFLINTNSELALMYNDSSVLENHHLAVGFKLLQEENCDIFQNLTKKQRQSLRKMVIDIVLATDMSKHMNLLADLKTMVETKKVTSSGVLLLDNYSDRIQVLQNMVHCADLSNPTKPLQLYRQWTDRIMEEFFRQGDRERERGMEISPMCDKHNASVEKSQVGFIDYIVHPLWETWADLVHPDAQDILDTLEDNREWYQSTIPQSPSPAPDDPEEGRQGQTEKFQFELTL

| IC50 [nM] | Compound |
| --- | --- |
| 140 ± 16 | Cc1ccc(-c2ccc(O)cc2)c(C(=C2C=CC(=O)C=C2)c2ccc(O)cc2)c1C#Cc1ccc(O)cc1 [Compound 8, selaginellin B] |
| 240 ± 40 | OCc1ccc2c(c1C#Cc1ccc(O)cc1)C(c1ccc(O)cc1)(c1ccc(O)cc1)c1cc(O)ccc1-2 [Compound 3, selaginpulvilin A] |
